Reference: patent US20230136562A1, “SPIROUREA DERIVATIVES” (Idorsia Pharmaceuticals Ltd, priority 2020, published 2023)
Where two headings read alike, the source gives them in different places.

System: primary neuronal cultures from embryonic rat brains
Assay: Rat oscillation assay (FLIPR, neuronal calcium oscillations)
Assay type: cell-based
Procedure, shortened: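 Cortical neurons from E18 Wistar rat embryos, cultured 8–10 days at high density, loaded with 1 μM Fluo-8 AM; calcium oscillations recorded by FLIPR once per second in Mg-free HBSS with 2 mM CaCl2, 20 mM HEPES, pH 7.4. Two acquisitions ("Acute", 500 sec, compound added at 250 sec; "20 min"), ± Kv7 blocker XE-991.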

[1] = Rattus norvegicus, 20 min, AUC of fluorescence measured 20 min after compound addition, read-out: FLIPR: IC50 [nM] 20 min
[2] = Rattus norvegicus, Acute phase, ratio of AUC fluorescence before and after compound addition, read-out: FLIPR: IC50 [nM] acute
[3] = AUC of fluorescence measured 20 min after compound addition, read-out: FLIPR: IC50 [nM] 20 min
[4] = Acute phase, ratio of AUC fluorescence before and after compound addition, read-out: FLIPR: IC50 [nM] acute

SMILES | IC50 [1] [nM] | IC50 [2] [nM] | IC50 [3] [nM] | IC50 [4] [nM] | activity compared with the (R) enantiomer (assay not given)
O=C(NC1CC2(CC2)C1)NC(CO)c1cccc(C(F)(F)F)c1 (racemic) [Example 143, (±)-1-[2-Hydroxy-1-(3-trifluoromethyl-phenyl)-ethyl]-3-spiro[2.3]hex-5-yl-urea] | 61 | 42 |  |  | 
CC(NC(=O)NC1CC2(CC2)C1)c1cc(OCC(F)(F)F)ncn1 (racemic) [Example 144, (±)-1-Spiro[2.3]hex-5-yl-3-{1-[6-(2,2,2-trifluoro-ethoxy)-pyrimidin-4-yl]-ethyl}-urea] | 119 | 96 |  |  | 
Cc1nc(OCC(F)(F)F)cc(C(C)NC(=O)NC2CC3(CC3)C2)n1 (racemic) [Example 145, (±)-1-{1-[2-Methyl-6-(2,2,2-trifluoro-ethoxy)-pyrimidin-4-yl]-ethyl}-3-spiro[2.3]hex-5-yl-urea] | 80 | 57 |  |  | 
O=C(NC1CC2(CC2)C1)NC(c1cccc(C(F)(F)F)c1)C(F)F (racemic) [Example 146, (±)-1-[2,2-Difluoro-1-(3-trifluoromethyl-phenyl)-ethyl]-3-spiro[2.3]hex-5-yl-urea] | 6.6 | 4.2 |  |  | 
COCC(NC(=O)NC1CC2(CC2)C1)c1cccc(C(F)(F)F)c1 (racemic) [Example 147, (±)-1-[2-Methoxy-1-(3-trifluoromethyl-phenyl)-ethyl]-3-spiro[2.3]hex-5-yl-urea] | 23 | 18 |  |  | 
COc1c(OCC(F)(F)F)ncnc1C(C)NC(=O)NC1CC2(CC2)C1 (racemic) [Example 152, (±)-1-{1-[5-Methoxy-6-(2,2,2-trifluoro-ethoxy)-pyrimidin-4-yl]-ethyl}-3-spiro[2.3]hex-5-yl-urea] | 532 | 520 |  |  | 
COCC(NC(=O)NC1CC2(CC2)C1)c1ccnc(OCC(F)(F)F)c1 (racemic) [Example 154, (±)-1-{2-Methoxy-1-[2-(2,2,2-trifluoro-ethoxy)-pyridin-4-yl]-ethyl}-3-spiro[2.3]hex-5-yl-urea] | 24 | 8.1 |  |  | 
CC(NC(=O)NC1CC2(C1)CC(F)(F)C2)c1cccc(C(F)(F)F)c1 (racemic) [Example 161, (±)-1-(6,6-Difluoro-spiro[3.3]hept-2-yl)-3-[1-(3-trifluoromethyl-phenyl)-ethyl]-urea] | 97 | 78 |  |  | 
O=C(NC1CC2(CCC2)C1)NC(c1cccc(C(F)(F)F)c1)c1c[nH]nn1 (racemic) [Example 162, (±)-1-Spiro[3.3]hept-2-yl-3-[(1H-[1,2,3]triazol-4-yl)-(3-trifluoromethyl-phenyl)-methyl]-urea] | 124 | 120 |  |  | 
Cn1nnnc1C(NC(=O)NC1CC2(CCC2)C1)c1cccc(C(F)(F)F)c1 (racemic) [Example 163, (±)-1-[(1-Methyl-1H-tetrazol-5-yl)-(3-trifluoromethyl-phenyl)-methyl]-3-spiro[3.3]hept-2-yl-urea] | 282 | 204 |  |  | 
Cn1nnc(C(NC(=O)NC2CC3(CCC3)C2)c2cccc(C(F)(F)F)c2)n1 (racemic) [Example 164, (±)-1-[(2-Methyl-2H-tetrazol-5-yl)-(3-trifluoromethyl-phenyl)-methyl]-3-spiro[3.3]hept-2-yl-urea] | 619 | 267 |  |  | 
Cn1nncc1C(NC(=O)NC1CC2(CCC2)C1)c1cccc(C(F)(F)F)c1 (racemic) [Example 165, (±)-1-[(3-Methyl-3H-[1,2,3]triazol-4-yl)-(3-trifluoromethyl-phenyl)-methyl]-3-spiro[3.3] hept-2-yl-urea] | 289 | 145 |  |  | 
CC(NC(=O)NC1CC2(CC(I)C2)C1)c1ccnc(OC(F)F)c1 (racemic) [Example 166, (±)-1-[1-(2-Difluoromethoxy-pyridin-4-yl)-ethyl]-3-(6-iodo-spiro[3.3]hept-2-yl)-urea] | 474 | 889 |  |  | 
O=C(NCc1cccc(C(F)(F)F)c1)NC1CC2(C1)CC2(F)F (single isomer, unassigned) [Example 4, 1-(1,1-Difluoro-spiro[2.3]hex-5-yl)-3-(3-trifluoromethyl-benzyl)-urea] |  |  | 152 | 175 | 
O=C(NCc1cccc(C(F)(F)F)c1)NC1CC2(C1)CC2(F)F (single isomer, unassigned) [Example 5, 1-(1,1-Difluoro-spiro[2.3]hex-5-yl)-3-(3-trifluoromethyl-benzyl)-urea] | 156 |  |  | 82 | 
C[C@@H](NC(=O)NC1CC2(CCC2)C1)c1ccnc(OC(F)F)c1 (single isomer, unassigned) [Example 167] | 1750 | 1280 |  |  | 
CC(Oc1cccc(C2(NC(=O)NC3CC4(CCC4)C3)CC2)c1)C(F)(F)F (single isomer, unassigned) [Example 169, 1-Spiro[3.3]hept-2-yl-3-{1-[3-(2,2,2-trifluoro-1-methyl-ethoxy)-phenyl]-cyclopropyl}-urea] |  | 42 | 20 |  | 
CC(Oc1cccc(C2(NC(=O)NC3CC4(CCC4)C3)CC2)c1)C(F)(F)F (single isomer, unassigned) [Example 170, 1-Spiro[3.3]hept-2-yl-3-{1-[3-(2,2,2-trifluoro-1-methyl-ethoxy)-phenyl]-cyclopropyl}-urea] |  |  | 59 | 76 | 
COCC(Oc1cc(CNC(=O)NC2CC3(CCC3)C2)ccn1)C(F)(F)F (single isomer, unassigned) [Example 171, 1-Spiro[3.3]hept-2-yl-3-[2-(2,2,2-trifluoro-1-methoxymethyl-ethoxy)-pyridin-4-ylmethyl]-urea] |  |  | 377 | 252 | 

SMILES | IC50 [1] [nM] | IC50 [2] [nM] | IC50 [3] [nM] | IC50 [4] [nM] | activity compared with the (R) enantiomer (assay not given)
C[C@H](NC(=O)NC1CC2(CCC2)C1)c1cccc(OC(F)F)c1 (single isomer, unassigned) [Example 173] | 11 | 7 |  |  | 
C[C@@H](NC(=O)NC1CC2(CCC2)C1)c1cccc(OC(F)F)c1 (single isomer, unassigned) [Example 174] | 2490 | 2870 |  |  | 
C[C@H](NC(=O)NC1CC2(CCC2)C1)c1cccc(OCC(F)(F)F)c1 (single isomer, unassigned) [Example 176] | 4.3 | 2.9 |  |  | 
O=C(NC1CC2(CCC2)C1)N[C@H](c1cccc(C(F)(F)F)c1)C(F)(F)F (single isomer, unassigned) [Example 178] | 11 | 16 |  |  | 
O=C(NC1CC2(CCC2)C1)N[C@H](c1cccc(C(F)(F)F)c1)c1nc[nH]n1 (single isomer, unassigned) [Example 179] | 13 | 24 |  |  | 
CC(Oc1nccc(CNC(=O)NC2CC3(CCC3)C2)n1)C(F)(F)F (single isomer, unassigned) [Example 180, 1-Spiro[3.3]hept-2-yl-3-[2-(-2,2,2-trifluoro-1-methyl-ethoxy)-pyrimidin-4-ylmethyl]-urea] |  |  | 78 | 62 | 
CC(Oc1nccc(CNC(=O)NC2CC3(CCC3)C2)n1)C(F)(F)F (single isomer, unassigned) [Example 181, 1-Spiro[3.3]hept-2-yl-3-[2-(2,2,2-trifluoro-1-methyl-ethoxy)-pyrimidin-4-ylmethyl]-urea] |  |  | 564 | 404 | 
C[C@@H](NC(=O)NC1CC2(CCC2)C1)c1cc(OCC(F)(F)F)ncn1 (single isomer, unassigned) [Example 183] | 1990 | 1420 |  |  | 
O=C(NC1CC2(CCC2)C1)N[C@@H](CO)c1cccc(C(F)(F)F)c1 (single isomer, unassigned) [Example 184] | 5.7 | 8.8 |  |  | 
O=C(NC1CC2(CCC2)C1)N[C@H](CO)c1cccc(C(F)(F)F)c1 (single isomer, unassigned) [Example 185] | 753 | 936 |  |  | 
COC[C@H](NC(=O)NC1CC2(CCC2)C1)c1ccnc(OC(F)F)c1 (single isomer, unassigned) [Example 187] | 3.9 | 2.7 |  |  | 
COC[C@H](NC(=O)NC1CC2(CC2)C1)c1ccnc(OCC(F)(F)F)c1 (single isomer, unassigned) [Example 188] | 5.6 | 5.3 |  |  | 
C[C@H](NC(=O)NC1CC2(CC2)C1)c1ccnc(OC(F)F)c1 (single isomer, unassigned) [Example 189] | 196 | 221 |  |  | 
C[C@H](NC(=O)NC1CC2(CCC2)C1)c1cc(C(F)(F)F)ccc1Br (single isomer, unassigned) [Example 190] | 200 | 286 |  |  | more active than the (R) enantiomer
O=C(NCc1cccc(C(F)(F)F)c1)NC1CC2(C1)CC2(F)F (centres unmarked) [Example 3, 1-(1,1-Difluoro-spiro[2.3]hex-5-yl)-3-(3-trifluoromethyl-benzyl)-urea] | 186 | 122 |  |  | 
O=C(NCc1cccc(C(F)(F)F)c1)NC1CC2(C1)CC(F)(F)C2 [Example 6, 1-(6,6-Difluoro-spiro[3.3]hept-2-yl)-3-(3-trifluoromethyl-benzyl)-urea] | 112 | 62 |  |  | 
O=C(NC1CC2(CCC2)C1)NC1(c2cccc(OC(F)F)c2)CC1 [Example 7, 1-[1-(3-Difluoromethoxy-phenyl)-cyclopropyl]-3-spiro[3.3]hept-2-yl-urea] | 142 | 85 |  |  | 
O=C(NCc1cccc(OC(F)(F)F)c1F)NC1CC2(CCC2)C1 [Example 8, 1-(2-Fluoro-3-trifluoromethoxy-benzyl)-3-spiro[3.3]hept-2-yl-urea] | 35 | 78 |  |  | 
O=C(NCc1cccc(C(F)(F)F)c1F)NC1CC2(CCC2)C1 [Example 12, 1-(2-Fluoro-3-trifluoromethyl-benzyl)-3-spiro[3.3]hept-2-yl-urea] | 55 | 36 |  |  | 
